Measured values as given in patent US11986532B2 (Arvinas Operations, Inc., priority 2021, dated 2024).
Like-named read-outs stand apart in the source and are kept apart here.

Target: T1, BCL6 (Homo sapiens, UniProt P41182)
T1 construct: endogenous in cells; host or cells: T47D breast cancer epithelial cells
Experiment: Immunofluorescence protocol for high content imaging of BCL6 (degradation) in T47D cells, 3 days compound treatment
Assay type: cell-based
Settings: for Dmax: read-out: Mean Dmax (%)** category; for DC50: read-out: Mean DC50 (nM)* category
How it was run: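 Remaining BCL6 in breast cancer T47D cells was measured by high-content immunofluorescence imaging after 3 days of treatment with serially diluted compound (top 0.1 or 1 μM). Nuclei were stained with Hoechst and cells with CellMask.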

[1] = T47D cells, 3 days compound treatment

Row | DC50 [1] [nM] | Dmax [1] [%] | SMILES | Dmax (T47D) [%] | DC50 [nM]
1 | – | – | CNC(=O)COc1cc2cc(Nc3nc(N4CCC(O[C@H]5C[C@H](N6CCC7(CC6)CN(c6ccc8c(c6F)CN(C6CCC(=O)NC6=O)C8=O)C7)C5)CC4)ncc3Cl)ccc2n(C(C)C)c1=O (stereo partly drawn) [Compound 410, 2-({6-[(5-chloro-2-{4-[(1r,3r)-3-{2-[2-(2,6-dioxopiperidin-3-yl)-4-fluoro-1-oxo-2,3-dihydro-1H-isoindol-5-yl]-2,7-diazaspiro[3.5]nonan-7-yl}cyclobutoxy]piperidin-1-yl}pyrimidin-4-yl)amino]-2-oxo-1-(propan-2-yl)-1,2-dihydroquinolin-3-yl}oxy)-N-methylacetamide] | ≥ 70 | < 10
2 | – | – | CNC(=O)COc1cc2cc(Nc3nc(N4CCC(O[C@H]5C[C@H](N6CCC(O)(c7ccc8c(c7F)CN(C7CCC(=O)NC7=O)C8=O)CC6)C5)CC4)ncc3Cl)ccc2n(C(C)C)c1=O (stereo partly drawn) [Compound 277, 2-({6-[(5-chloro-2-{4-[(1r,3r)-3-{4-[2-(2,6-dioxopiperidin-3-yl)-4-fluoro-1-oxo-2,3-dihydro-1H-isoindol-5-yl]-4-hydroxypiperidin-1-yl}cyclobutoxy]piperidin-1-yl}pyrimidin-4-yl)amino]-2-oxo-1-(propan-2-yl)-1,2-dihydroquinolin-3-yl}oxy)-N-methylacetamide] | 50 to 70 | < 10
3 | < 10 | ≥ 70 | CNC(=O)COc1cc2cc(Nc3nc(N4CCC(F)(CN5CCC6(CC5)CCN(c5cccc7c5C(=O)N(C5CCC(=O)NC5=O)C7=O)CC6)CC4)ncc3Cl)ccc2n(C(C)C)c1=O (stereo not drawn) [Compound 62, 2-{[6-({5-chloro-2-[4-({9-[2-(2,6-dioxopiperidin-3-yl)-1,3-dioxo-2,3-dihydro-1H-isoindol-4-yl]-3,9-diazaspiro[5.5]undecan-3-yl}methyl)-4-fluoropiperidin-1-yl]pyrimidin-4-yl}amino)-2-oxo-1-(propan-2-yl)-1,2-dihydroquinolin-3-yl]oxy}-N-methylacetamide] | – | –
4 | < 10 | 50 to 70 | CNC(=O)COc1cc2cc(Nc3nc(N4CCC(C(=O)N5CCC6(CCN(c7ccc8c(c7)CN(C7CCC(=O)NC7=O)C8=O)C6)C5)CC4)ncc3Cl)ccc2n(C(C)C)c1=O (stereo not drawn) [Compound 47, 2-[(6-{[5-chloro-2-(4-{7-[2-(2,6-dioxopiperidin-3-yl)-1-oxo-2,3-dihydro-1H-isoindol-5-yl]-2,7-diazaspiro[4.4]nonane-2-carbonyl}piperidin-1-yl)pyrimidin-4-yl]amino}-2-oxo-1-(propan-2-yl)-1,2-dihydroquinolin-3-yl)oxy]-N-methylacetamide] | – | –
5 | – | – | CNC(=O)COc1cc2cc(Nc3cc(N4CCC(O[C@H]5C[C@H](N6CCC(c7ccc8c(c7)C(=O)N(C7CCC(=O)NC7=O)C8=O)CC6)C5)CC4)ncc3Cl)ccc2n(C(C)C)c1=O (stereo partly drawn) [Compound 243, 2-({6-[(5-chloro-2-{4-[(1r,3r)-3-{4-[2-(2,6-dioxopiperidin-3-yl)-1,3-dioxo-2,3-dihydro-1H-isoindol-5-yl]piperidin-1-yl}cyclobutoxy]piperidin-1-yl}pyridin-4-yl)amino]-2-oxo-1-(propan-2-yl)-1,2-dihydroquinolin-3-yl}oxy)-N-methylacetamide] | < 50 | 10 to 50
6 | – | – | CNC(=O)COc1cc2cc(Nc3nc(N4CCC(O[C@H]5C[C@H](N6CC7(CCN(c8ccc9c(c8)C(=O)N(C8CCC(=O)NC8=O)C9=O)C7)C6)C5)CC4)ncc3Cl)ccc2n(C(C)C)c1=O (stereo partly drawn) [Compound 350, 2-({6-[(5-chloro-2-{4-[(1r,3r)-3-{6-[2-(2,6-dioxopiperidin-3-yl)-1,3-dioxo-2,3-dihydro-1H-isoindol-5-yl]-2,6-diazaspiro [3.4]octan-2-yl}cyclobutoxy]piperidin-1-yl}pyrimidin-4-yl)amino]-2-oxo-1-(propan-2-yl)-1,2-dihydroquinolin-3-yl}oxy)-N-methylacetamide] | ≥ 70 | < 10
